Data set [1] is described as follows: Hydrophilic-lipophilic balance (HLB). It is filed as physicochemical. The settings on record: experimentally determined required HLB range. The text has this:
As understood herein, the term “hydrophilic-lipophilic balance (HLB)” describes the ratio between the size of the hydrophilic and lipophilic regions of a surfactant molecule. The empirically derived formula: […]
Was introduced for alkyl ethoxylates (Griffin W. C. J. Soc. Cosmet. Chem., 5 (1954), p. 249.) The HLB of more complex surfactant structures is found using a systematic approach based on chemical group assignments (Davies J. T., Rideal E. K. Interfacial Phenomena Academic Press, New York (1961), pp. 371-378):
HLB=7+Σ(Hydrophile group number)−Σ(lipophile group number)
A water-in-oil emulsion (w/o) has […]. An oil-in-water (o/w) emulsion has […]. The propensity for formation of a w/o or o/w emulsion is determined by the balance of hydrophobicity and hydrophilicity of the solutions in the mixture. This may be determined using the HLB scale. Oleic phase reagents are assigned an HLB number, determined experimentally, that allows for selection of an appropriate surfactant to cause emulsification with the aqueous phase. […] HLB as understood herein is a semi-quantitative measure of the relative molecular weights of the hydrophilic and lipophilic regions of a surfactant molecule assigned on a scale from 0.5 (extremely lipophilic) to 19.5 (extremely hydrophilic).

The conditions of data set [2]: surfactant, cited from earlier work.
The subject of data set [3] is h-tert human mesenchymal stem cells. In words: Cyto-compatibility of scaffolds (CCK-8, contact and leachable assay). It is filed as cell-based. The settings on record: acute (24 h) and chronic (120 h) exposure; surfactant at 0.1% v/v in media. Here is the method: Cylindrical samples were cut with an 8 mm biopsy punch (n=3) were cut from two scaffolds. […] At 24 h (acute response time) and 120 h (chronic response time), 300 μl DMEM/CCK-8 (10:1) was added and incubated for 4 hours at 37° C. before reading absorbance at 450 nm. Two scaffolds of the same composition (D3, D4) from different manufacturing batches (0.1% Tx-165 surfactant, 90% porous, 2:1 fibrin: PVA, 2% fibrinogen) were tested with triplicate samples from each. […] This material is known to be non-cytotoxic, verified with both in vitro and in vivo assays.

Data set [4] in a line: Oil carrying capacity (oil fraction at lowest TSI). It is filed as physicochemical. The settings on record: decane / MES-NaCl buffer, 0.1% (v/v) surfactant, 37° C. An excerpt:
The proposed system of determining the oil fraction at which optimum emulsion stability occurs, the ‘oil carrying capacity’ (OCC) of the surfactant, is intended as a tool for surfactant selection in a system where the desired oil fraction is known. Equally, it may be used to optimise oil fraction ‘carried’ in the emulsion when a particular surfactant is required. It is a practical tool to be used in conjunction with other metrics, such as HLB, but its simplicity and broad application make it versatile and easy to implement to formulation practice.
The oil fraction at the lowest TSI after 15 minutes was identified as the ‘oil carrying capacity’ (OCC) of that surfactant. Further oil/buffer/surfactant mixtures were prepared at 5% oil fractions either side of this minimum (i.e. an initial minimum of 70% oil fraction would be tested then at 65% and 75% oil fraction).

A short description of data set [5]: Turbiscan emulsion stability (TSI) of decane/buffer emulsions stabilised with surfactant. It is filed as physicochemical. The settings on record: 0.1% (v/v) surfactant, 15 mins after mixing.
Test in data set [6]: as above
The settings on record: 0.1% (v/v) surfactant, 15 mins after mixing. It is filed as physicochemical. An excerpt:
Stability was herein reported using the Turbiscan™ stability index (TSI). This non-destructive, non-invasive technique gives the stability of the sample over its whole selected height as a function of transmitted and backscattered light compared to the same measurements at the previous timepoint. Kinetic stability is built up over sequential scans. The pattern of change across the height of the sample gives a ‘fingerprint’ characteristic of the mode of destabilisation. TSI is defined in equation 1: […]
where scani is the backscattering value at a given timepoint, scani-1 is the backscattering value from the previous timepoint, h is the height of the scan and H is the total sample height from the first to the last scan. TSI is the sum of the differences between sequential scans and thus represents the stability of the sample over a defined timeframe. TSI reduces with increasing stability.
Stock solutions of surfactants were prepared in 7 ml polystyrene bijou by dispersing 0.1% (v/v) surfactant in decane so that surfactant scaled with oil fraction. These stock solutions were shaken briefly to disperse the surfactants before adding the deionised water. 4 ml mixtures were prepared in triplicate for each surfactant at various oil fractions (50, 60, 70, 80, 90% v/v oil-surfactant). Each sample was vortexed for 1 minute using WhirliMixer™ (Fisherbrand) to homogenise immediately prior to stability measurements.
3 ml of the sample was pipetted into a borosilicate glass cuvette, taking care to maintain a clean meniscus, and analysed using Turbiscan™ LAB Analyser (Formulation, Toulouse, France) scanning every 30 seconds for a total of 15 minutes.
Turbiscan stability index (TSI) was plotted for each surfactant as a function of oil fraction in the emulsion preparation, HLB, or time. Lower TSI indicates less change in the transmitted light, or less change in particle size and position.
Stability was measured using the Turbiscan™ static multiple light scattering analyser and expressed using the Turbiscan stability index (TSI) which reflects the change in transmitted and backscattered light across the height of a sample over a period of time. A higher value of TSI reflects poorer stability; a lower value reflects greater stability. However, because TSI measures rate of change, emulsions which break instantly after mixing ceases can display low TSI values.
This is another data set of the same source.

Results on 17 compounds are retold here after US20230390463A1, “TISSUE SCAFFOLDS” (JD BIOMEDICAL SOLUTIONS LTD., priority 2020, published 2023).

Read-outs that look alike come from different tables or passages of the source.

Regarding `CCCCCCCCCC` [decane], the “required HLB of the decane oil phase” value in data set [1] is given as 10-13.

Consider C11-15 pareth-7 [Tergitol 15-S-7], for which the HLB in data set [2] is given as 12.1.

As to “Polyethylene glycol 4-tert-octylphenyl ether [Triton X-100 reduced]”, the HLB in data set [2] is listed as 9.8.

Take C11-15 pareth-9 [Tergitol 15-S-9]: the HLB in data set [2] is listed as 13.3; in data set [2] (listed as Tergitol T-S-9) it was around 13.

In the case of Octylphenol ethoxylate [Triton X-165], in data set [3], the cytotoxicity entry was “cytotoxic in itself”.

Take C11-15 pareth-15 [Tergitol 15-S-15]: the HLB in data set [2] is 15.4.

“Polyethylene glycol 4-tert- octylphenyl ether [Triton X-45]”: the HLB in data set [2] is recorded as 9.8.

For “Polyoxyethylene (40) isooctylphenyl ether [Triton X-405]”, the HLB in data set [2] is listed as 17.6. In addition, the “oil fraction at maximum stability (oil carrying capacity)” value (“oil fraction at maximum stability” for short) in data set [4] amounted to 70%.

Take Octylphenol ethoxylate [Triton X-102]: in data set [4], the “oil fraction at maximum stability” value was 70%.

As to Nonylphenol ethoxylate [Tergitol NP-10], the HLB in data set [2] is on record as 13.2.

In the case of “Polyethylene glycol tert-octylphenyl ether [Triton X-114 reduced]”, in data set [2], the HLB is listed as 13.4.

With “Polyethylene glycol trimethylnonyl ether [Tergitol TMN-10]”, the HLB in data set [2] is on record as 14.4.

For the compound “Polyethylene glycol tert-octylphenyl ether [Triton X-114]”, the HLB in data set [2] was 12.3. Also, the “oil fraction at maximum stability” value in data set [4] was 70%.

For “Polyethylene glycol trimethylnonyl ether [Tergitol TMN-6]”, the HLB in data set [2] is reported as 13.1.

In the case of “Ethylene oxide-propylene oxide copolymer mono(2-ethylhexyl) ether [Ecosurf EH-9]”, the HLB in data set [2] is reported as 12.5.

For the compound “Polyethylene glycol tert- octylphenyl ether [Triton X-100]”, in data set [2], the HLB is 13.4. Besides, the “oil fraction at maximum stability” value in data set [4] came to 70%. Also, the “Turbiscan stability index (TSI)” value is given as 3.571 in data set [5] (75% v/v decane, mixing speed 1000 rpm); 2.601 in data set [5] (75% v/v decane, mixing speed 2000 rpm); 2.723 in data set [5] (75% v/v decane, mixing speed 3000 rpm); 3.213 in data set [5] (75% v/v decane, mixing speed 4000 rpm); 2.398 in data set [5] (75% v/v decane, mixing speed 5000 rpm); 9.886 in data set [5] (80% v/v decane, mixing speed 4000 rpm). The “Turbiscan stability index (TSI)” value stood at 3.189 in data set [6] (70% v/v decane, mixing speed 1000 rpm); 2.758 in data set [6] (70% v/v decane, mixing speed 2000 rpm); 8.763 in data set [6] (70% v/v decane, mixing speed 3000 rpm); 3.637 in data set [6] (70% v/v decane, mixing speed 4000 rpm); 2.705 in data set [6] (70% v/v decane, mixing speed 5000 rpm); 2.483 in data set [6] (80% v/v decane, mixing speed 1000 rpm). Further, the “Turbiscan stability index (TSI)” value in data set [6] (80% v/v decane, mixing speed 2000 rpm) is 2.225; in data set [6] (80% v/v decane, mixing speed 3000 rpm), 2.493; in data set [6] (80% v/v decane, mixing speed 5000 rpm), 5.128.

On to “Octylphenol ethoxylate [Triton N-101 reduced]”, for which the HLB in data set [2] is 14.4.
